This is an account of results in patent publication US8044100B2, “Methods and compositions for treating amyloid-related diseases” (Bellus Health Inc., priority 2004, dated 2011).

This test relates to Aβ peptides (Aβ40, Aβ42) in the plasma and brain of TgCRND8 mice. The experiment in a line: Short term treatment (14 or 28 days) in TgCRND8 mice: Aβ levels in plasma and brain by ELISA.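 On Aβ40 Change Insoluble: symbols grade percent change in Aβ versus untreated control with plus for increase and minus for decrease.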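 On Aβ40 Change Soluble: symbols grade percent change in Aβ versus untreated control with plus for increase and minus for decrease.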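 On Aβ42 Change Insoluble: symbols grade percent change in Aβ versus untreated control with plus for increase and minus for decrease.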 The test is classed as in vivo, mouse. As to conditions: for Aβ40 Change Insoluble / Aβ40 Change Soluble / Aβ42 Change Insoluble / Aβ42 Change Soluble: brain homogenate; for Aβ40 Change / Aβ42 Change: plasma. As for the experimental part: The short term therapeutic effect of 19 compounds of the invention was studied. These compounds were administered over a 14 or 28 day period at the end of which the levels of Aβ peptides in the plasma and brain of TgCRND8 animals were determined.
Male and female transgenic mice from the 3rd and 4th B6C3F1 generations were used in this example and given daily subcutaneous or oral administrations of one of a series of compounds for 14 or 28 days. The following abbreviations are used to designate these animals from the 3rd and 4th generation backcross in the present protocol: TgCRND8-2.B6C3F1(N3); TgCRND8-2.B6C3F1 (N4).
Baseline animals (Group 1) consisted of naive TgCRND8-2. B6C3F1(N3) at 11±1 weeks of age. These mice were used to determine the Aβ levels in the plasma and brain of naive transgenic animals at the initiation of treatment.
Starting at 11 weeks of age (±1 week) animals received daily administration of their respective treatment for a period of 14 or 28 days (groups 2-21), at a dose of 250 mg/kg at 10 ml/kg or of vehicle only (water; group 2) or 1% methyl cellulose only (group 21). The route of administration was subcutaneous for water-soluble compounds and oral for compounds solubilized in methylcellulose 1%. (MC 1%). At the end of the treatment periods, plasma and perfused brains were collected for quantification of Aβ levels.
At 11±1 weeks of age for the Baseline group, and at the end of the treatment period (14 or 28 days) for Groups 2 to 21, at 24 hours after the last compound administration animals were sacrificed and samples collected. An approximate blood volume of 500 μl was collected from the orbital sinus and kept on ice until centrifugation at 4° C. at a minimum speed of 3,000 rpm for 10 minutes. Plasma samples were immediately frozen and stored at −80° C. pending analysis. The brains were removed, frozen, and stored at −80° C. awaiting analysis.
Brains were weighted frozen and homogenized with 4 volumes of ice cold 50 mM Tris-Cl pH 8.0 buffer with protease inhibitor cocktail (4 mL of buffer for 1 g of wet brain). Samples were spun at 15000 g for 20 minutes and the supernatants were transferred to fresh tubes. One hundred fifty (150) μl from each supernatant were mixed with 250 μl of 8M guanidine-HCL/50 mM Tris-HCL pH 8.0 (ratio of 0.6 vol supernatant:1 vol 8M guanidium/Tris-HCL 50 mM pH8.0) and 400 μL 5 M guanidium/Tris-HCL 50 mM pH8.0 were added. The tubes were vortexed for 30 seconds and frozen at −80° C. In parallel, pellets were treated with 7 volumes of 5 M guanidine-HCL/50 mM Tris-HCL pH 8.0 (7 mL of guanidine for 1 g of wet brain), vortexed for 30 seconds and frozen at −80° C. Samples were thawed at room temperature, sonicated at 80° C. for 15 minutes and frozen again. This cycle was repeated 3 times to ensure homogeneity and samples were returned to −80° C. pending analysis.
Aβ levels were evaluated in plasma and brain samples by ELISA using Human Aβ40 and Aβ42 Fluorometric ELISA kits from Biosource (Cat. No. 89-344 and 89-348) according to manufacturer's recommended procedures. In short, samples were thawed at room temperature, sonicated for 5 minutes at 80° C. (sonication for brain homogenates; no sonication for plasma samples) and kept on ice. Aβ peptides were captured using 100 μl of the diluted samples to the plate and incubated without shaking at 4° C. overnight. The samples were aspirated and the wells were rinsed 4 times with wash buffer obtained from the Biosource ELISA kit. The anti-Aβ40 or anti-Aβ42 rabbit polyclonal antiserum (specific for the Aβ40 or Aβ42 peptide) was added (100 μl) and the plate was incubated at room temperature for 2 hours with shaking. The wells were aspirated and washed 4 times before adding 100 μl of the alkaline phosphatase labeled anti-rabbit antibody and incubating at room temperature for 2 hours with shaking. The plates were then rinsed 5 times and the fluorescent substrate (100 μl) was added to the plate. […]

Setting [1] is: Day 14, vehicle group, 250 mg/kg daily.
[2] abbreviates: Day 28, vehicle group, 250 mg/kg daily.
[3] abbreviates: Day 14, vehicle (water) group, 250 mg/kg daily subcutaneous.
[4] abbreviates: Day 14, methylcellulose group, daily oral.
Where [5] appears, read: Day 28, methylcellulose group, daily oral.

SMILES strings stand for the structures.

For the compound `CC(C)(C)NCCCS(=O)(=O)O` [BX, 3-(t-butyl)amino-1-propanesulfonic acid], under “after 14 and 28 days of treatment”, the “levels of Aβ peptides in the plasma” value is recorded as “significant increase”. Also, under setting [1], the “Aβ40 Change Insoluble” value is recorded as “−−− (decreases of 39% or more)”, the “Aβ40 Change Soluble” value was “− (Decreases in the levels of Aβ of 5 to 19%)”, the “Aβ42 Change Insoluble” value is “−−− (decreases of 39% or more)” and the “Aβ42 Change Soluble” value is “−− (decreases of 20 to 38%)”. In addition, under setting [2], the “Aβ40 Change Insoluble” value is given as “−−− (decreases of 39% or more)”, the “Aβ40 Change Soluble” value was “−−− (decreases of 39% or more)”, the “Aβ42 Change Insoluble” value was “− (Decreases in the levels of Aβ of 5 to 19%)” and the “Aβ42 Change Soluble” value is recorded as “−− (decreases of 20 to 38%)”. Besides, under setting [3], the “Aβ40 Change” value is reported as “+++ (increases of 70% or higher)” and the “Aβ42 Change” value is “++ (increases of 40 to 69%)”. In addition, under “Day 28, vehicle (water) group, 250 mg/kg daily subcutaneous”, the “Aβ40 Change” value is given as “+++ (increases of 70% or higher)”.
Regarding `O=S(=O)(O)CCCNC12CC3CC(CC(C3)C1)C2` [BW], under setting [4], the “Aβ40 Change Insoluble” value was “−−− (decreases of 39% or more)”, the “Aβ42 Change Insoluble” value is recorded as “−−− (decreases of 39% or more)” and the “Aβ42 Change Soluble” value is “−− (decreases of 20 to 38%)”. Under setting [5], the “Aβ40 Change Insoluble” value is given as “− (Decreases in the levels of Aβ of 5 to 19%)”, the “Aβ40 Change Soluble” value was “− (Decreases in the levels of Aβ of 5 to 19%)”, the “Aβ42 Change Insoluble” value was “−− (decreases of 20 to 38%)” and the “Aβ42 Change Soluble” value is “− (Decreases in the levels of Aβ of 5 to 19%)”. Under setting [5], the “Aβ42 Change” value was “+ (increases in the levels of Aβ (relative to untreated control) of 20 to 39%)”.
